system: pulmonary hemorrhage induced by human neutrophil elastase (HNE); assay: Inhibitory activity on pulmonary hemorrhage induced by human neutrophil elastase (HNE); assay type: in vivo; details: Homo sapiens, Neutrophil, po; hamster, orally administered 30 minutes prior to intratracheal HNE; hemoglobin in bronchoalveolar lavage fluid after 1 hour
Excerpt: Experiment 3: Inhibitory Activity on Pulmonary Hemorrhage Induced by Human Neutrophil Elastase (HNE)
This experiment tested on in vivo efficacy of the compound of the present invention. When human neutrophil elastase is intratracheally administered to a hamster, the pulmonary hemorrhage is induced. A definite time later after administration of the elastase, in the bronchoalveolar lavage fluid by washing lung via trachea, hemoglobin is detected.
Hamsters (Syrian strain, 7–10 weeks old male) were divided into groups consisting of 3 to 6, and each group was treated as follows:
(A) A Group to which the Compound of the Present Invention was not Administered (Disease Control):
Physiological saline solution (0.2 ml) in which 25 unit of human neutrophil elastase (Elastin Product Co., Inc.) was dissolved was intratracheally administered to a hamster to induce the pulmonary hemorrhage. One hour later after administration of elastase, the hamsters were sacrificed by exsanquination, and alveoli were transtracheally washed twice with physiological saline (2.5 ml), and the hemoglobin concentration in the bronchoalveolar lavage fluid (5 ml) was determined by measuring the absorbance at 414 nm.
(B) A Group to which the Compound of the Present Invention was Administered:
A fixed amount of the compound of the present invention was dissolved in dimethyl sulfoxide (DMSO), and thereto was added 0.5% tragacanth gum to prepare a suspension. The suspension was orally administered to a hamster, 30 minutes prior to the administration of human neutrophil elastase (HNE) (final concentration of DMSO, 1%), and then, human neutrophil elastase was administered in the same manner as the above method (A). After 1 hour, the concentration of hemoglobin in the bronchoalveolar lavage fluid was determined in the same manner as the above method (A).
The hemorrhage inhibition activity of the compound of the present invention is represented as the hemorrhage inhibiting rate in the following formula.
The dose of the compound of the present invention to be required to achieve 50% inhibition of pulmonary hemorrhage (i.e., ED50) was calculated based on the administration dose-hemorrhage inhibiting rate curve.
As a comparative example, the same experiment was also carried out on a comparative compound used in Experiment 1.
Some of the compounds of the present invention were compared with the comparative compound on the hemorrhage inhibitory rate at the dose of 3 mg/kg.

SMILES	ED50 [mg/kg]
CCc1noc(C)c1C(=O)N[C@H](C(=O)N1CCC[C@H]1C(=O)N[C@H](C(=O)C(F)(F)F)C(C)C)C(C)C [Example 4, N-[(1S)-2-((2S)-2-{N-[(1S)-3,3,3-trifluoro-1-(methylethyl)-2-oxopropyl]carbamoyl}pyrrolidinyl)-1-(methylethyl)-2-oxoethyl]-(3-ethyl-5-methylisoxazol-4-yl)carboxamide]	2.5

same assay, conditions: hamster, dose 3 mg/kg orally, 30 minutes prior to HNE

SMILES	Pulmonary hemorrhage inhibitory rate (%)
CC(C)[C@H](NC(=O)c1c[nH]cn1)C(=O)N1CCC[C@H]1C(=O)N[C@H](C(=O)C(F)(F)F)C(C)C [Comparative compound, N-[(1S)-2-((2S)-2-{N-[(1S)-3,3,3-trifluoro-1-(methylethyl)-2-oxopropyl]carbamoyl}pyrrolidinyl)-1-(methylethyl)-2-oxoethyl](imidazol-4-yl)carboxamide, reference compound]	18

same assay, conditions: hamster, orally administered 30 minutes prior to intratracheal HNE; hemoglobin in bronchoalveolar lavage fluid after 1 hour

SMILES	Inhibitory activity on pulmonary hemorrhage ED50 [mg/kg]
CC(C)[C@H](NC(=O)c1c[nH]cn1)C(=O)N1CCC[C@H]1C(=O)N[C@H](C(=O)C(F)(F)F)C(C)C [Comparative compound, N-[(1S)-2-((2S)-2-{N-[(1S)-3,3,3-trifluoro-1-(methylethyl)-2-oxopropyl]carbamoyl}pyrrolidinyl)-1-(methylethyl)-2-oxoethyl](imidazol-4-yl)carboxamide, reference compound]	>10

target: T1, human neutrophil elastase (Homo sapiens, UniProt P08246); assay: Inhibitory activity on human neutrophil elastase (HNE) in vitro; assay type: biochemical; details: human neutrophil elastase 0.2 U/ml, substrate MeO-Suc-Ala-Ala-Pro-Val-pNA 0.5 mM, 37° C., pH 7.5
T1 construct: purchased Elastine Product Co., Inc
T1 sequence (P08246 30-267): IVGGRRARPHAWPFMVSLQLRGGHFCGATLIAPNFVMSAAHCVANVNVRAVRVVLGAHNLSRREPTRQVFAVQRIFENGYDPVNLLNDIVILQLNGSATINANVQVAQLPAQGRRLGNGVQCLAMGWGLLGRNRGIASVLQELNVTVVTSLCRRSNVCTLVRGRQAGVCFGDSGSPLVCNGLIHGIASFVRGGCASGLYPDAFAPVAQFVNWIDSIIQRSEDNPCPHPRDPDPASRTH
Protocol: Experiment 1: Inhibitory Activity on Human Neutrophil Elastase (HNE)
The inhibitory activity of the compound of the present invention in vitro on human neutrophil elastase was examined by this experiment.
To 100 mM of HEPES {[N-(2-hydroxyethyl)piperazine-N′-(2-ethanesulfonic acid)], pH 7.5}buffer solution containing 1M NaCl and 0.001% Brij-35 (polyoxyethylene lauryl ether) were added human neutrophil elastase (final concentration: 0.2 U/ml, Elastine Product Co., Inc.) and the compound of the present invention (dissolved in 10% dimethyl sulfoxide; final concentration: 10^−10˜3×10^−3 M). The mixture was pre-incubated for 3 minutes at 37° C. Thereto was added MeO-Suc-Ala-Ala-Pro-Val-pNA (methoxysuccinyl-alanyl-alanyl-prolyl-valyl-p-nitroanilide (Sigma Chemical Co.)) as a substrate to give the final concentration of 0.5 mM, and the reaction was initiated. Under this condition, the producing rate of the reaction product, p-nitroanilide (pNA) at 37° C. was estimated by measuring the absorbance at 404 nm for 3 minutes.
The inhibitory activity of the compound of the present invention against human neutrophil elastase (HNE) is calculated according to the following formula.
The concentration of the compound of the present invention to be required to achieve 50% HNE inhibition (i.e., IC50) was calculated based on the concentration-inhibitory rate curve of the compound of the present invention.
As a comparative compound, N-[(1S)-2-((2S)-2-{N-[(1S)-3,3,3-trifluoro-1-(methylethyl)-2-oxopropyl]carbamoyl}pyrrolidinyl)-1-(methylethyl)-2-oxoethyl](imidazol-4-yl)carboxamide was used, and the same assay was carried out. The planar structure of this compound was the same as one of compound (22) disclosed in J. Med. Chem., 1997, 40, 1876–1885.

SMILES	IC50 [µM]
CC(C)[C@H](NC(=O)c1c[nH]cn1)C(=O)N1CCC[C@H]1C(=O)N[C@H](C(=O)C(F)(F)F)C(C)C [Comparative compound, N-[(1S)-2-((2S)-2-{N-[(1S)-3,3,3-trifluoro-1-(methylethyl)-2-oxopropyl]carbamoyl}pyrrolidinyl)-1-(methylethyl)-2-oxoethyl](imidazol-4-yl)carboxamide, reference compound]	0.078
CCc1noc(C)c1C(=O)N[C@H](C(=O)N1CCC[C@H]1C(=O)N[C@H](C(=O)C(F)(F)F)C(C)C)C(C)C [Example 4, N-[(1S)-2-((2S)-2-{N-[(1S)-3,3,3-trifluoro-1-(methylethyl)-2-oxopropyl]carbamoyl}pyrrolidinyl)-1-(methylethyl)-2-oxoethyl]-(3-ethyl-5-methylisoxazol-4-yl)carboxamide]	0.017
Cc1nsc(C)c1C(=O)N[C@H](C(=O)N1CCC[C@H]1C(=O)N[C@H](C(=O)C(F)(F)F)C(C)C)C(C)C [Example 5, N-[(1S)-2-((2S)-2-{N-[(1S)-3,3,3-trifluoro-1-(methylethyl)-2-oxopropyl]carbamoyl}pyrrolidinyl)-1-(methylethyl)-2-oxoethyl]-(3,5-dimethylisothiazol-4-yl)carboxamide]	0.022
CC(C)[C@H](NC(=O)c1cc(-c2ccccc2)on1)C(=O)N1CCC[C@H]1C(=O)N[C@H](C(=O)C(F)(F)F)C(C)C [Example 9, N-[(1S)-2-((2S)-2-(N-[(1S)-3,3,3-trifluoro-1-(methylethyl)-2-oxopropyl]carbamoyl}pyrrolidinyl)-1-(methylethyl)-2-oxoethyl]-(5-phenylisoxazol-3-yl)carboxamide]	0.0092
CC(C)[C@H](NC(=O)c1ccc2c(c1)nnn2C(C)C)C(=O)N1CCC[C@H]1C(=O)N[C@H](C(=O)C(F)(F)F)C(C)C [Example 13, N-[(1S)-2-((2S)-2-{N-[(1S)-3,3,3-trifluoro-1-(methylethyl)-2-oxopropyl]carbamoyl}pyrrolidinyl)-1-(methylethyl)-2-oxoethyl]-[1-(methylethyl)benzotriazol-5-yl]carboxamide]	0.0063
CC(C)[C@H](NC(=O)c1ccc2snnc2c1)C(=O)N1CCC[C@H]1C(=O)N[C@H](C(=O)C(F)(F)F)C(C)C [Example 14, N-[(1S)-2-((2S)-2-{N-[(1S)-3,3,3-trifluoro-1-(methylethyl)-2-oxopropyl]carbamoyl}pyrrolidinyl)-1-(methylethyl)-2-oxoethyl](benzo[d]1,2,3-thiadiazol-5-yl)carboxamide]	0.012
Cc1ccc2onc(C(=O)N[C@H](C(=O)N3CCC[C@H]3C(=O)N[C@H](C(=O)C(F)(F)F)C(C)C)C(C)C)c2c1 [Example 18, N-[(1S)-2-((2S)-2-{N-[(1S)-3,3,3-trifluoro-1-(methylethyl)-2-oxopropyl]carbamoyl}pyrrolidinyl)-1-(methylethyl)-2-oxoethyl]-(5-methylbenzo[d]isoxazol-3-yl)carboxamide]	0.012
Cc1nocc1C(=O)N[C@H](C(=O)N1CCC[C@H]1C(=O)N[C@H](C(=O)C(F)(F)F)C(C)C)C(C)C [Example 21, N-[(1S)-2-((2S)-2-{N-[(1S)-3,3,3-trifluoro-1-(methylethyl)-2-oxopropyl]carbamoyl}pyrrolidinyl)-1-(methylethyl)-2-oxoethyl]-(3-methylisoxazol-4-yl)carboxamide]	0.011
CC(C)[C@H](NC(=O)c1cc(C(C)(C)C)no1)C(=O)N1CCC[C@H]1C(=O)N[C@H](C(=O)C(F)(F)F)C(C)C [Example 23, N-[(1S)-2-((2S)-2-{N-[(1S)-3,3,3-trifluoro-1-(methylethyl)-2-oxopropyl]carbamoyl}pyrrolidinyl)-1-(methylethyl)-2-oxoethyl]-(3-tert-butylisoxazol-5-yl)carboxamide]	0.015
CC(C)[C@H](NC(=O)c1cc(-c2ccccc2)no1)C(=O)N1CCC[C@H]1C(=O)N[C@H](C(=O)C(F)(F)F)C(C)C [Example 24, N-[(1S)-2-((2S)-2-{N-[(1S)-3,3,3-trifluoro-1-(methylethyl)-2-oxopropyl]carbamoyl}pyrrolidinyl)-1-(methylethyl)-2-oxoethyl]-(3-phenylisoxazol-5-yl)carboxamide]	0.015
Cc1c(C(=O)N[C@H](C(=O)N2CCC[C@H]2C(=O)N[C@H](C(=O)C(F)(F)F)C(C)C)C(C)C)cnn1C(C)(C)C [Example 32, N-[(1S)-2-((2S)-2-{N-[(1S)-3,3,3-trifluoro-1-(methylethyl)-2-oxopropyl]carbamoyl}pyrrolidinyl)-1-(methylethyl)-2-oxoethyl]-(1-tert-butyl-5-methylpyrazol-4-yl)carboxamide]	0.0085

Other lines, results leading:

IC50 [µM]	SMILES
0.012	CC(C)[C@H](NC(=O)c1cnn(-c2ccccc2)c1)C(=O)N1CCC[C@H]1C(=O)N[C@H](C(=O)C(F)(F)F)C(C)C [Example 33, N-[(1S)-2-((2S)-2-{N-[(1S)-3,3,3-trifluoro-1-(methylethyl)-2-oxopropyl]carbamoyl}pyrrolidinyl)-1-(methylethyl)-2-oxoethyl]-(1-phenylpyrazol-4-yl)carboxamide]
0.0098	Cc1nn(-c2ccccc2)c(C)c1C(=O)N[C@H](C(=O)N1CCC[C@H]1C(=O)N[C@H](C(=O)C(F)(F)F)C(C)C)C(C)C [Example 34, N-[(1S)-2-((2S)-2-{N-[(1S)-3,3,3-trifluoro-1-(methylethyl)-2-oxopropyl]carbamoyl}pyrrolidinyl)-1-(methylethyl)-2-oxoethyl]-(3,5-dimethyl-1-phenylpyrazol-4-yl)carboxamide]
0.0091	Cc1c(C(=O)N[C@H](C(=O)N2CCC[C@H]2C(=O)N[C@H](C(=O)C(F)(F)F)C(C)C)C(C)C)cnn1-c1ccc(F)cc1 [Example 37, N-[(1S)-2-((2S)-2-{N-[(1S)-3,3,3-trifluoro-1-(methylethyl)-2-oxopropyl]carbamoyl}pyrrolidinyl)-1-(methylethyl)-2-oxoethyl]-[1-(4-fluorophenyl)-5-methylpyrazol-4-yl]carboxamide]
0.01	Cc1ccc(-n2ncc(C(=O)N[C@H](C(=O)N3CCC[C@H]3C(=O)N[C@H](C(=O)C(F)(F)F)C(C)C)C(C)C)c2C)cc1 [Example 39, N-[(1S)-2-((2S)-2-{N-[(1S)-3,3,3-trifluoro-1-(methylethyl)-2-oxopropyl]carbamoyl}pyrrolidinyl)-1-(methylethyl)-2-oxoethyl]-[5-methyl-1-(4-methylphenyl)pyrazol-4-yl]carboxamide]
0.0081	Cc1c(C(=O)N[C@H](C(=O)N2CCC[C@H]2C(=O)N[C@H](C(=O)C(F)(F)F)C(C)C)C(C)C)cnn1-c1cccc(F)c1 [Example 46, N-[(1S)-2-((2S)-2-{N-[(1S)-3,3,3-trifluoro-1-(methylethyl)-2-oxopropyl]carbamoyl}pyrrolidinyl)-1-(methylethyl)-2-oxoethyl]-[1-(3-fluorophenyl)-5-methylpyrazol-4-yl]carboxamide]
